This is an account of results in article PMC6382835, “A critical evaluation of TRPA1-mediated locomotor behavior in zebrafish as a screening tool for novel anti-nociceptive drug discovery” (Scientific Reports, 2019).

For one assay, the target named is T1, mouse TRPA1 (mTRPA1) (Mus musculus, UniProt Q8BLA8).
T1 construct: host or cells: HEK293 (ATCC CRL-1573), transient transfection
Kind of assay: FLIPR calcium signaling assay in mTRPA1-transfected HEK293 cells. Type of assay: cell-based. Conditions: for EC50: read-out: EC50 (potency in µM). How it is done: HEK293 cells (#CRL-1573, ATCC, VA, USA) were cultured in DMEM media (#11995-065, Sigma-Aldrich, MO, USA) with 10% Fetal Bovine Serum (#F0926-500ML, Thermo Fisher, MA, USA). The cells were maintained in a 37 °C incubator with consistent 5% CO2. They were seeded in a clear 6 well flat bottom cell culture plates (#07-200-83, Corning ®, Thermo Fisher) with 500,000 cells/2 ml/well for transfection, in serum-free Opti-MEM (#31985070, Gibco®, Thermo Fisher). These cells were transfected with pcDNA3.1-mTRPA1 (#MR227099, OriGene, MD, USA), pcDNA3.1-zTRPA1a, or pcDNA3.1-zTRPA1b (a gift from Dr. David Prober) using X-tremeGENE^TM 9 (#6365809001, Sigma-Aldrich). After 24 hours, the transfected cells were dislodged with trypsin, resuspended in Opti-MEM, and seeded 25,000 cells/25 µl/well in 384-well black polystyrene microplates (#82051-296, VWR, PA, USA) for testing calcium signaling the following day. Experiments were carried out with the approval of the Institutional Biohazard Committee (#13-013-16).
Twenty-five µl calcium sensitive Fluorescent Imaging Plate Reader (FLIPR) Calcium 6 assay dye (#R8190, Molecular Devices, CA, USA) was added to each well of a 384-well plate containing HEK293 cells transiently expressing mTRPA1, zTRPA1a, and zTRPA1b, respectively. The cells were incubated for an hour prior to the recording of intracellular calcium levels in a FlexStation3 Multi-Mode Microplate Reader (#R8190, Molecular Devices) as previously described. All compounds were diluted in calcium buffer made with 1x HBSS (#14025-092, Thermo Fisher), 20 mM HEPES (#15630-080, Thermo Fisher), and 2.5 mM Probenecid (#P8761, Sigma-Aldrich). For agonist studies, ASP7663 (#5178, Tocris, Bristol, UK) was diluted in 1% DMSO-containing calcium buffer at desired concentrations and was added during the recording. The TRPA1 antagonists HC-030031 (#2896, Tocris), TCS-5861528 (#3938, Tocris), and A-967079 (#4716, Tocris) were diluted in calcium buffer, and 5 µl of 10x solutions were added 10 minutes prior to the recording. The same amount of DMSO (1%) was added to all control groups to maintain similar DMSO levels with the experimental groups. During the assay, the cells were challenged by a 5x ASP7663 solution or 1% DMSO solution at the 20 seconds time point, and both solutions were diluted in calcium buffer. Relative fluorescence units (RFU) were measured for 120 seconds period by the Flexstation. Area under the curve (AUC) was further evaluated from individual calcium influx data (Supplemental Figs 2 and 4) to plot does-response curve of antagonists. For each specific antagonist concentration we plotted Log(dose ratio-1) against the antagonist concentration in a Schild plot. The dose ratio (A’/A) equals the EC50 of the agonist ([…]) in the presence of a concentration of the antagonist (A’) divided by the EC50 of the agonist in the absence of antagonist (A). The x-intercept of the Schild plot was used to identify the antagonist-receptor affinity (pA2).
All data are presented as means ± standard error of the mean (SEM). For our in vitro statistical analysis, AUC of calcium influx (RFU) was measured to plot dose-response curves, which were further analyzed by nonlinear regression analysis. Mean RFU of the first 10 seconds was used as a baseline of the AUC. EC50 values of the dose-response curves were further used to plot Schild curves, and the curves were analyzed with linear regression analysis. For the mice von Frey test, mechanical thresholds were analyzed with two-way ANOVA followed by a Bonferonni test for multiple comparison analysis. For the zebrafish behavior test, the data from the first five seconds following drug administration were excluded, as zebrafish displacement during that period was highly influenced by liquid dispensing. AUC of all curves were measured and analyzed by one-way ANOVA. The post-hoc analysis was conducted with the Tukey’s or Dunnett’s multiple comparisons unless it stated otherwise. […]

The subject of another assay is 5 dpf zebrafish larvae. In words: Zebrafish locomotor tracking assay. Type of assay: in vivo, Zebrafish (Danio rerio). Conditions: for swimming (locomotor) behavior: 100 μM agonist, 5 dpf larvae, 300 s tracking. How it is done:
Wild-type zebrafish of the AB line were utilized for all behavioral experiments. Adult and larval zebrafish were maintained on a 14 hr/10 hr light/dark cycle. They were maintained and bred using standard procedure https://zfin.org/zf_info/zfbook/zfbk.html. Larval zebrafish were reared until 5 days post-fertilization (dpf) in E3 media https://zfin.org/zf_info/zfbook/chapt1/1.3.html in an incubator at 28 °C. E3 media was changed daily, and healthy embryos were kept for experiments.
In the behavioral experiments, one 5 dpf zebrafish was placed in 250 μL of fish media per well of a 96-well plate (UNIPLATE Collection and Analysis Microplate, 96-Well 7701-1651). For each experimental condition, a group of 8 larvae (1 column) was used. Larvae were acclimated to the wells for 300 seconds after which an 8-channel pipette was used to simultaneously dispense 250 μL of 2x concentration of the TRPA1 agonist ASP7663 in fish media into each well. Locomotor activity was subsequently tracked and quantified (as distance travelled) for 300 additional seconds utilizing the Zebrabox system from ViewPoint Behavior Technology (Civrieux, France). For TRPA1 antagonist testing, larvae in the 96-well plate were pretreated with 1x concentration of antagonist in 250 μL E3 media for 20 minutes. Then, 250 μL of 2x TRPA1 agonist was added directly to this solution, and the resulting behavior was recorded as described above.
All data are presented as means ± standard error of the mean (SEM). For our in vitro statistical analysis, AUC of calcium influx (RFU) was measured to plot dose-response curves, which were further analyzed by nonlinear regression analysis. Mean RFU of the first 10 seconds was used as a baseline of the AUC. EC50 values of the dose-response curves were further used to plot Schild curves, and the curves were analyzed with linear regression analysis. For the mice von Frey test, mechanical thresholds were analyzed with two-way ANOVA followed by a Bonferonni test for multiple comparison analysis. For the zebrafish behavior test, the data from the first five seconds following drug administration were excluded, as zebrafish displacement during that period was highly influenced by liquid dispensing. AUC of all curves were measured and analyzed by one-way ANOVA. The post-hoc analysis was conducted with the Tukey’s or Dunnett’s multiple comparisons unless it stated otherwise. A value of y = 0 in the graph was used as a baseline of the AUC. For our time-course average displacement graph, we used 2nd degree polynomial smoothing for a better representation; however, we used data before smoothing for all statistical analysis and quantification. All in vitro and in vivo data were evaluated using GraphPad Prism 7 (GraphPad Software, La Jolla, CA) unless it stated otherwise.

Setting [1] is: Schild plot against ASP7663-induced calcium influx, mTRPA1.
The mark [2] stands for this setting: agonist calcium influx, AUC of RFU, mTRPA1-transfected HEK293.

T1 sequence (Q8BLA8 whole entry): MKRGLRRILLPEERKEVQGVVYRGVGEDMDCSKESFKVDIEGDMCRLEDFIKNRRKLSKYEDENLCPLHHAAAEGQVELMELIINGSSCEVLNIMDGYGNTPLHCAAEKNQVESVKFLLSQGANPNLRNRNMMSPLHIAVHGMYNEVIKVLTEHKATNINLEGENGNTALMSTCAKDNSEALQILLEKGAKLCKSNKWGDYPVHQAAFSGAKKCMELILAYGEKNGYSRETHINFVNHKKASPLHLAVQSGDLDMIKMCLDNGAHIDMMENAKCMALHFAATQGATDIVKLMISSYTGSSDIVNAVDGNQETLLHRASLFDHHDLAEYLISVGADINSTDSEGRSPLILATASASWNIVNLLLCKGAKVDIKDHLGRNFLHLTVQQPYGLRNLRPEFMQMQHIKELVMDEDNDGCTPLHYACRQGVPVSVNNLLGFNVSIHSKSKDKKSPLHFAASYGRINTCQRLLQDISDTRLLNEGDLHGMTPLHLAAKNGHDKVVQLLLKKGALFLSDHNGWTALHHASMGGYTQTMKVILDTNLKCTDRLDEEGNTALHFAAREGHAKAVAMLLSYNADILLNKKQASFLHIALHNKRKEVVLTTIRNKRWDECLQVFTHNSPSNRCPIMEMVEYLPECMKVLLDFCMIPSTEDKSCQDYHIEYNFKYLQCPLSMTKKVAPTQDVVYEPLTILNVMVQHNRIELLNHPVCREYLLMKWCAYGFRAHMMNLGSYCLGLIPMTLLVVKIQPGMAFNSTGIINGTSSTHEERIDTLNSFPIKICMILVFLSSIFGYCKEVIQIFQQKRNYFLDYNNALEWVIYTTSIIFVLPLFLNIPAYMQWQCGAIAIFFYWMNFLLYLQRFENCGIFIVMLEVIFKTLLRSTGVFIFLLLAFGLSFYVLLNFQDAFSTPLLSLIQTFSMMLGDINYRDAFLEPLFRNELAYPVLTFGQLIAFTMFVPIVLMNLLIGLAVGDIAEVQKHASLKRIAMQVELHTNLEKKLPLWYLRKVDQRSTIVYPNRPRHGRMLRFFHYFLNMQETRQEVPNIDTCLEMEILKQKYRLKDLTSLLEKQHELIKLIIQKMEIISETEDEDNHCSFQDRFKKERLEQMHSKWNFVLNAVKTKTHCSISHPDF

Take `CC(C)c1ccc(NC(=O)Cn2cnc3c2c(=O)n(C)c(=O)n3C)cc1` [HC-030031]: on mouse TRPA1 (mTRPA1) (setting [1]), the pA2 (usually a measure of antagonist potency on a negative log scale) is 5.65 ± 0.2 and the “pA2 expressed in µM” value is 2.2 µM. Besides, in the assay on 5 dpf zebrafish larvae (10 μM HC-030031 alone vs E3), the “swimming behavior with antagonist alone” value is recorded as “increased swimming behavior over baseline”. Also, the “inhibition of ASP7663 (100 μM)-mediated nocifensive locomotor behavior” value with 5 dpf zebrafish larvae (10 μM antagonist pre-incubation 20 minutes) was “inhibited the nocifensive locomotor behavior”.

As to `CC(C)CN1C(=O)/C(=C/C(=O)O)c2cccc(F)c21` [ASP7663], the “persistence of calcium influx” value at mouse TRPA1 (mTRPA1) (316 µM, up to 120 seconds, compared to AITC) is reported as “more persistent calcium influx compared to AITC”. Also, on mouse TRPA1 (mTRPA1) (setting [2]), the pEC50 (commonly the negative decadic logarithm of the EC50, by convention in mol/L) worked out at 5.16 ± 0.16 and the EC50 (in general, the concentration that produces a half-maximal response) worked out at 6.8 µM. For the same compound, the “potency weaker than previously reported (fold)” value on mouse TRPA1 (mTRPA1) (versus similar FLIPR-based calcium assay) is on record as ~ 10 fold. Also, the “swimming (locomotor) behavior” value in the assay on 5 dpf zebrafish larvae was “induced a slower and more sustained swimming behavior”. Besides, the locomotor activity result in the assay with 5 dpf zebrafish larvae (ASP7663 higher concentration 31.6 and 100 μM) is “hyperlocomotor activity”. The locomotor activity result in the assay with 5 dpf zebrafish larvae (ASP7663 low doses 3.16 and 10 μM) is reported as “induced hypolocomotion”.

On to `C=CCN=C=S` [AITC, allyl isothiocyanate], for which the EC50 on mouse TRPA1 (mTRPA1) (setting [2]) was found to be 5.8 µM. In the assay on 5 dpf zebrafish larvae, the “swimming (locomotor) behavior” value is “elicited an acute and rapid swimming behavior immediately upon treatment”.
